Source: patent US20240058460A1, “METHODS AND COMPOUNDS FOR MODULATING HUNTINGTON'S DISEASE” (Design Therapeutics, Inc., priority 2022, published 2024)

Legend:
[1] = tested on: human HTT C allele (SNP rs362331C/T) mRNA in GM09197 fibroblasts; test: HTT mRNA, allele-specific RT-PCR in GM09197 fibroblasts, C allele; format: cell-based; details: for GM 09197 E min 48 Hr C Allele (%): lowest % HTT observed at 0.5 nM to 1000 nM compound; for IC50: Homo sapiens, Fibroblast, 48 hr, C allele HTT mRNA normalized to GAPDH, relative to vehicle
Experimental: (§1) Molecular Biology Toolkit: • qPCR primer probe sets: • RNA input normalization was assessed utilizing human glyceraldehyde 3-phosphate dehydrogenase (hGAPDH) TaqMan assay (ThermoFisher cat #4351370) or Human Cyclophillin ([…]) TaqMan assay (ThermoFisher cat #4351372) • Total HTT detection was assessed utilizing human Htt TaqMan assay (ThermoFisher cat #4331182) • Allele-specific detection of human HTT expression in HD cells containing the SNP rs362331C/T (Exon 50): for each assay, allele-specific probes to detect the SNP variant contained locked nucleic acid bases to improve allele discrimination, as compared to unmodified DNA probes. • 362331-F (331 forward primer) • 362331-R (331 reverse primer) • 362331-C probe: TCC CTC ATC+C+AC TGT GT • 362331-T probe: CTC+A+T+C+T+A+C TGT GT • qPCR was performed using Agpath ID one-step reverse transcriptase polymerase chain reaction (RT-PCR) reagent
(§2) Screening of HD molecules methods: GM09197 and/or GM04022 fibroblasts were cultured in T175 flasks incubated at 37° C. and 5% CO2. Once confluency was reached, the media was removed, the cells were washed with 1×PBS, and cells were dissociated using TrypLE™ Express Enzyme. Media was added to the enzyme and collected into a 15-mL conical tube and centrifuged at 500×g for 5 minutes to pellet the cells. Media and enzyme were aspirated using a serological pipette. Cells were resuspended in fresh media and counted using a Countess 3 Automated Cell Counter. Cells were plated at a density of 15,000 cells/well in a tissue culture-treated polystyrene 96-well dish and incubated at 37° C. and 5% CO2 overnight. The next day, media was removed using an 8-channel aspirator. 200 μL media/well are added back into the plate. The molecules are formulated to 1 mM and are dispensed using a Multidrop™ Pico 8 Digital Dispenser. After a 48-hour incubation with compounds, media was removed from plates, cells were washed with 1×PBS, and cells were lysed in 40 μL per well guanidinium thiocyanate buffer. RNA was isolated and purified in […] glass fiber column plates using chaotropic salts. Human mtHTT, wtHTT, and GAPDH mRNA were measured via RT-PCR using the ThermoFisher QuantStudio™ 7 Flex System in 384-well format. Results of HTT levels were normalized to GAPDH mRNA levels. Normalized HTT mRNA levels were expressed relative to vehicle-treated samples to assess fold change after molecule treatment.
(§3) Emin for each compound is the lowest % HTT concentration observed within a compound concentration of 0.5 nM to 1000 nM.

[2] = tested on: human HTT T allele (SNP rs362331C/T) mRNA in GM09197 fibroblasts; test: HTT mRNA, allele-specific RT-PCR in GM09197 fibroblasts, T allele; format: cell-based; details: for IC50: Homo sapiens, Fibroblast, 48 hr, T allele HTT mRNA normalized to GAPDH, relative to vehicle; for Gm09197 Emin 48 hr T Allele (%): lowest % HTT observed at 0.5 nM to 1000 nM compound
Experimental: as §1, §2, §3

SMILES	GM 09197 E min 48 Hr C Allele (%) [1]	IC50 [2] [nM]	Gm09197 Emin 48 hr T Allele (%) [2]	IC50 [1] [nM]
CCNS(=O)(=O)c1ccc(Oc2ccc(OCCOCCOCCOCCOCCOCCOCCOCCOCCOCCOCCOCCOCCOCCOCCOCCNC(=O)CCNC(=O)c3nc(NC(=O)c4cc(NC(=O)CCNC(=O)c5nc(NC(=O)CCCNC(=O)c6cc(NC(=O)c7nc(NC(=O)CCNC(=O)c8cc(NC(=O)c9nccn9C)cn8C)cn7C)cn6C)cn5C)cn4C)cn3C)cc2F)c(-c2cn(C)c(=O)c3[nH]ccc23)c1 [Compound A-68]	A (A>90%)	17	C (C<80%)	
CCS(=O)(=O)Nc1ccc(Oc2ccc(F)cc2F)c(-c2cn(C)c(=O)c3[nH]c(C(=O)Nc4ccc(OCCOCCOCCOCCOCCOCCOCCOCCOCCOCCOCCOCCOCCOCCOCCOCCNC(=O)c5cc(NC(=O)c6nc(NC(=O)[C@H](N)CCNC(=O)c7cc(NC(=O)c8nc(NC(=O)CCNC(=O)c9cc(NC(=O)c%10nccn%10C)cn9C)cn8C)cn7C)cn6C)cn5C)cc4)cc23)c1 [Compound A-36]	A (A>90%)	> 1000	A (A>90%)	> 1000
Cn1cc(NC(=O)c2nc(NC(=O)CCNC(=O)c3cc(NC(=O)c4nccn4C)cn3C)cn2C)cc1C(=O)NCCCC(=O)Nc1cn(C)c(C(=O)NCCC(=O)Nc2cc(C(=O)Nc3cn(C)c(C(=O)NCCC(=O)NCCOCCOCCOCCOCCOCCOCCOCCOCCN4C[C@H](Nc5cnn(C)c(=O)c5Br)C[C@H](c5ccccc5)C4)n3)n(C)c2)n1 [Compound A-48]	A (A>90%)	> 1000	A (A>90%)	> 1000
Cc1noc(C)c1-c1ccc2c(c1)nc(CCc1ccc(OCCOCCOCCOCCOCCOCCOCCOCCOCCOCCOCCOCCOCCOCCOCCOCCNC(=O)CCNC(=O)c3nc(NC(=O)c4cc(NC(=O)CCNC(=O)c5nc(NC(=O)CCCNC(=O)c6cc(NC(=O)c7nc(NC(=O)CCNC(=O)c8cc(NC(=O)c9nccn9C)cn8C)cn7C)cn6C)cn5C)cn4C)cn3C)c(Cl)c1)n2C[C@H](C)N1CCOCC1 [Compound A-54]		> 1000		> 1000
Cc1sc2c(c1C)C(c1ccc(Cl)cc1)=N[C@H](CC(=O)Nc1ccc(OCCOCCOCCOCCOCCOCCOCCOCCOCCOCCOCCOCCOCCOCCOCCOCCNC(=O)CCNC(=O)c3nc(NC(=O)c4cc(NC(=O)CCNC(=O)c5nc(NC(=O)CCCNC(=O)c6cc(NC(=O)c7nc(NC(=O)CCNC(=O)c8cc(NC(=O)c9nccn9C)cn8C)cn7C)cn6C)cn5C)cn4C)cn3C)cc1)c1nnc(C)n1-2 [Compound A-45]	C (C<80%)	> 1000	C (C<80%)	> 1000
CCNC(=O)c1cc2c(-c3cc(S(C)(=O)=O)ccc3Oc3ccc(OCCOCCOCCOCCOCCNC(=O)CCNC(=O)c4nc(NC(=O)c5cc(NC(=O)CCNC(=O)c6nc(NC(=O)CCCNC(=O)c7cc(NC(=O)c8nc(NC(=O)CCNC(=O)c9cc(NC(=O)c%10nccn%10C)cn9C)cn8C)cn7C)cn6C)cn5C)cn4C)cc3F)cn(C)c(=O)c2[nH]1 [Compound A-55]	A (A>90%)	> 1000	A (A>90%)	> 1000
Cc1sc2c(c1C)C(c1ccc(Cl)cc1)=N[C@@H](CC(=O)Nc1ccc(OCCOCCOCCOCCOCCOCCOCCOCCOCCOCCOCCOCCOCCOCCOCCOCCNC(=O)CCNC(=O)c3nc(NC(=O)c4cc(NC(=O)CCNC(=O)c5nc(NC(=O)OCCNC(=O)c6cc(NC(=O)c7nc(NC(=O)CCNC(=O)c8cc(NC(=O)c9nccn9C)cn8C)cn7C)cn6C)cn5C)cn4C)cn3C)cc1)c1nnc(C)n1-2 [Compound A-73]	A (A>90%)	> 1000	A (A>90%)	> 1000
